Columns and labels:
Type in all cases: functional, cell-based
[1] = biological target: T1, MDR1 (P-glycoprotein, ABCB1) (Homo sapiens, UniProt P08183); test: TP_TRANSPORTER: increase in Rhodamine 123 intracellular accumulation (R123: 150 uM, Bepridil: 5 ug/mL) in MDR1-expressing NIH3T3 cells; conditions: mouse, probe Rhodamine 123 (150 uM)
[2] = biological target: T2, ATP-dependent translocase ABCB1 (Homo sapiens, UniProt P08183); test: TP_TRANSPORTER: increase in Rhodamine 123 intracellular accumulation (R123: 150 uM, Chlorpromazine: 2.5 ug/mL) in MDR1-expressing NIH3T3 cells; conditions: mouse
T2 sequence (P08183 whole entry): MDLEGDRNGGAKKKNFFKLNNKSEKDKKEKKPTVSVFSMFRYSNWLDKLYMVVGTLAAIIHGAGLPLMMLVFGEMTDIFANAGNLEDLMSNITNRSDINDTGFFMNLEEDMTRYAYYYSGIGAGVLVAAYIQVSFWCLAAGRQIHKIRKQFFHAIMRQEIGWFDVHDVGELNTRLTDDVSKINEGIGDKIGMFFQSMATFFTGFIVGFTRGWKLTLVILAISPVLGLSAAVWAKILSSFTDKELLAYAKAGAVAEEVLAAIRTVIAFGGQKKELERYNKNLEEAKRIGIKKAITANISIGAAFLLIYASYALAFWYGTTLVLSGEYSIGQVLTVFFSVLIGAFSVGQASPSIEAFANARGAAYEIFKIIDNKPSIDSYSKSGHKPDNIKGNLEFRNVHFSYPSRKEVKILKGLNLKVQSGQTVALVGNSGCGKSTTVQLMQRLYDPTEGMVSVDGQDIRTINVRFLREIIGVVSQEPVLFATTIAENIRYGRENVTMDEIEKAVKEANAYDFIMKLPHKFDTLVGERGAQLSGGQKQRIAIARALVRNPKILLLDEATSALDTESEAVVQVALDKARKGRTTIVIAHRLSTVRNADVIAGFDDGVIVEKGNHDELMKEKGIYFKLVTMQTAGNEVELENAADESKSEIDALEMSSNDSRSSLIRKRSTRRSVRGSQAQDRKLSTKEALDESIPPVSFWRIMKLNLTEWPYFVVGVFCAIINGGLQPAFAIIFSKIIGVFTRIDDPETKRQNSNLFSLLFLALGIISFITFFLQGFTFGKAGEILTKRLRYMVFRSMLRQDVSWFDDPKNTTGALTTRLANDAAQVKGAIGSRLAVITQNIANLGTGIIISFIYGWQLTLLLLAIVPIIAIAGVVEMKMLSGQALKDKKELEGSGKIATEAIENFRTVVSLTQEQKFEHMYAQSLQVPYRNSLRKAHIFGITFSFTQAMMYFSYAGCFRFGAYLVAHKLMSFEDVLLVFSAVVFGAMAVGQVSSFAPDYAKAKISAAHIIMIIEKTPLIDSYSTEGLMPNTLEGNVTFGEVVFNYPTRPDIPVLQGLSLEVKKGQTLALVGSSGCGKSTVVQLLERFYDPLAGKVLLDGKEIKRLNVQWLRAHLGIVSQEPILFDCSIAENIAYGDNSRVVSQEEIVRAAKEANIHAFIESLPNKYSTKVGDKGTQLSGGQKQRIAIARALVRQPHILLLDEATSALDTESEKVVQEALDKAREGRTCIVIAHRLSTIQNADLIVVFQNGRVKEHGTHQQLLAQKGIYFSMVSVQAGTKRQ

[3] = biological target: T1, MDR1 (P-glycoprotein, ABCB1); test: TP_TRANSPORTER: increase in Rhodamine 123 intracellular accumulation (R123: 150 uM, Nicardipine: 2 ug/mL) in MDR1-expressing NIH3T3 cells; conditions: mouse, probe Rhodamine 123 (150 uM)
[4] = biological target: T2, ATP-dependent translocase ABCB1; test: TP_TRANSPORTER: increase in Rhodamine 123 intracellular accumulation (R123: 150 uM, Prochloperazine: 5 ug/mL) in MDR1-expressing NIH3T3 cells; conditions: mouse
[5] = biological target: T2, ATP-dependent translocase ABCB1; test: TP_TRANSPORTER: increase in Rhodamine 123 intracellular accumulation (R123: 150 uM, Promethazine: 20 ug/mL) in MDR1-expressing NIH3T3 cells; conditions: mouse

T1 sequence (P08183 whole entry): as above

CC(C)COCC(CN(Cc1ccccc1)c1ccccc1)N1CCCC1 (stereo not given) [BEPRIDIL]
inhibition at 5 ug/mL [1]: 100%

CCCNC(=O)NS(=O)(=O)c1ccc(Cl)cc1 [CHLORPROPAMIDE]
Inhibition [2]: inhibitor [at a rough estimate 90 % inhibition]

COC(=O)C1=C(C)NC(C)=C(C(=O)OCCN(C)Cc2ccccc2)C1c1cccc([N+](=O)[O-])c1 (stereo not given) [NICARDIPINE]
inhibition at 2 ug/mL [3]: 100%

CN1CCN(CCCN2c3ccccc3Sc3ccc(Cl)cc32)CC1 [PROCHLORPERAZINE]
Inhibition [4]: inhibitor [(at a rough estimate) 80 % inhibition]

CC(CN1c2ccccc2Sc2ccccc21)N(C)C (stereo not given) [PROMETHAZINE]
Inhibition [5]: inhibitor [(at a rough estimate) 80 % inhibition]
